# From ChEMBL document CHEMBL5291721, “A preclinical secondary pharmacology resource illuminates target-adverse drug reaction associations of marketed drugs” (Nat Commun, 2023)
# Columns and labels:
# Vasopressin V2 receptor = Vasopressin V2 receptor (Homo sapiens, UniProt P30518)
# Endothelin-1 receptor = molecular target: T1, Endothelin-1 receptor (Homo sapiens, UniProt P25101)
# T1 sequence (P25101 whole entry): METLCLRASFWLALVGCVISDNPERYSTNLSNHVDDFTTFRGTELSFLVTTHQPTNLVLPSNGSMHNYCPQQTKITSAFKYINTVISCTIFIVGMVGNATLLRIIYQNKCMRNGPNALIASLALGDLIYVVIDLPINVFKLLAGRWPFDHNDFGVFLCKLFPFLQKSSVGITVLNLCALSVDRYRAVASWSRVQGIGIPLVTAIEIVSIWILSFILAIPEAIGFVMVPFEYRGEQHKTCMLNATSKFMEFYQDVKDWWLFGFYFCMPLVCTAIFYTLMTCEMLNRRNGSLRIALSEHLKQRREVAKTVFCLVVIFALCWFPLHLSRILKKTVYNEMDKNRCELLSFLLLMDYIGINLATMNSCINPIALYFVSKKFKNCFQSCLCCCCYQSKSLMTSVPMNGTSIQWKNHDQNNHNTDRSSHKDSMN
# Estrogen receptor = molecular target: T2, Estrogen receptor (Homo sapiens, UniProt P03372)
# T2 sequence (P03372 whole entry): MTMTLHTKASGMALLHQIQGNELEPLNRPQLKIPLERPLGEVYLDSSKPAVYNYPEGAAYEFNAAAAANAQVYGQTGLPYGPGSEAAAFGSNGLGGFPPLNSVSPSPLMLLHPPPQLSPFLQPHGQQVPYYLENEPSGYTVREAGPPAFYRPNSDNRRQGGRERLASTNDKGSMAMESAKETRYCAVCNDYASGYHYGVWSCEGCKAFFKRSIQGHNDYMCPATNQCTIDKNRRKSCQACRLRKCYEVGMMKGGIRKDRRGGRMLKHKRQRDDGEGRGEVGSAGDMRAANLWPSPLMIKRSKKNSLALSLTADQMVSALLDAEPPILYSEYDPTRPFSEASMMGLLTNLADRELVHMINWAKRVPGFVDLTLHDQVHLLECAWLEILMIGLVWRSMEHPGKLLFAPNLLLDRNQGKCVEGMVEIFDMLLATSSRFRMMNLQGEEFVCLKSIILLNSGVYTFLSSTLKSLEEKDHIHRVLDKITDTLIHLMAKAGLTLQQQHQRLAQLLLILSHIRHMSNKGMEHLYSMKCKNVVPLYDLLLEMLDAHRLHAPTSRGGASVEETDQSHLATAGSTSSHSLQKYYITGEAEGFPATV
# Glucocorticoid receptor = molecular target: T3, Glucocorticoid receptor (Homo sapiens, UniProt P04150)
# T3 sequence (P04150 whole entry): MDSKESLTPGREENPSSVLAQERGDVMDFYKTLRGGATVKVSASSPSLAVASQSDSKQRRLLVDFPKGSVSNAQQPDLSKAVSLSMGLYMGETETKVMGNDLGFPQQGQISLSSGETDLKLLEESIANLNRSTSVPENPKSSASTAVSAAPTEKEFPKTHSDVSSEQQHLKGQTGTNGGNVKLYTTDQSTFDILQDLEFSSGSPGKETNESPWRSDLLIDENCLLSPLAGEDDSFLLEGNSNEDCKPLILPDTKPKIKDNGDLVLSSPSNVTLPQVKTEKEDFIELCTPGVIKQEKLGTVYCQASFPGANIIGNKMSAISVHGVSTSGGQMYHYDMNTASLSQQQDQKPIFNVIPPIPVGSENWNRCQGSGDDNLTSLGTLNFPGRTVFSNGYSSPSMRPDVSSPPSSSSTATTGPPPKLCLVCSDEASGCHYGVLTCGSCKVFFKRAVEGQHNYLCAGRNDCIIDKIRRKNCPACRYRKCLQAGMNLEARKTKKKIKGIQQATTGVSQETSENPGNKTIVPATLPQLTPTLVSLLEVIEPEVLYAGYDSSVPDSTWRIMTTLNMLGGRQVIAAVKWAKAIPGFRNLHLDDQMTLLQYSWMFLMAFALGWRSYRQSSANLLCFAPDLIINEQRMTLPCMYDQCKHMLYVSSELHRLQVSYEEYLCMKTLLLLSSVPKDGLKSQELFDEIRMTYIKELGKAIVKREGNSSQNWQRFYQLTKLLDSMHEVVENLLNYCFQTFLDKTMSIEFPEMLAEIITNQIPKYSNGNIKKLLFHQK
# Mu-type opioid receptor = Mu-type opioid receptor (Homo sapiens, UniProt P35372)
# Sequence of Mu-type opioid receptor (P35372 whole entry): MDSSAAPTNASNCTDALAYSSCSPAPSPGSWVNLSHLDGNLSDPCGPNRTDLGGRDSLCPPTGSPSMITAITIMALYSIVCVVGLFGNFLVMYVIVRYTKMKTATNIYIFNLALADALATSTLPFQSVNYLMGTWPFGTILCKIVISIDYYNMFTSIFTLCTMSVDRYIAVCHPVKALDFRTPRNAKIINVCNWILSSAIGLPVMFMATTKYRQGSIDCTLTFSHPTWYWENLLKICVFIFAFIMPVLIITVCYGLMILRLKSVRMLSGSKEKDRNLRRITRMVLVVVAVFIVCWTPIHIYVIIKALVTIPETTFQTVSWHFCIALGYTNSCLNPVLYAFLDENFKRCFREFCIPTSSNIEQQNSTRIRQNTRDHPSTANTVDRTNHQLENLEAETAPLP
# [1] = molecular target: T4, Amine oxidase [flavin-containing] A (Homo sapiens, UniProt P21397); type: functional
# T4 sequence (P21397 whole entry): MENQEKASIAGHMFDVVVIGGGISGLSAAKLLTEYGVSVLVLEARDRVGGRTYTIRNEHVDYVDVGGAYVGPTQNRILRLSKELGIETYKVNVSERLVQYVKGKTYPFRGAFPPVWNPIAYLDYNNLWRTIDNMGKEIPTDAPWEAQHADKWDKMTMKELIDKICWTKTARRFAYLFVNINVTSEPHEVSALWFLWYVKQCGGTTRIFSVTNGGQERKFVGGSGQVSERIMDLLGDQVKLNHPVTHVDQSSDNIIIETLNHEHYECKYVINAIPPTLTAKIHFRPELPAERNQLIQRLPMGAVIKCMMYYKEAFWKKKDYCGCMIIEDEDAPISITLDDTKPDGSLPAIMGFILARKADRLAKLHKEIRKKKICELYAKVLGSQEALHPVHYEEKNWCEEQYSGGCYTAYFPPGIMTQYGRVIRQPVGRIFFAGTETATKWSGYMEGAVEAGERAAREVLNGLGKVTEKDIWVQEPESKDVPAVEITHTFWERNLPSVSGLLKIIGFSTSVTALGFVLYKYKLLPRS
# D(3) dopamine receptor = D(3) dopamine receptor (Homo sapiens, UniProt P35462)
# Sequence of D(3) dopamine receptor (P35462 whole entry): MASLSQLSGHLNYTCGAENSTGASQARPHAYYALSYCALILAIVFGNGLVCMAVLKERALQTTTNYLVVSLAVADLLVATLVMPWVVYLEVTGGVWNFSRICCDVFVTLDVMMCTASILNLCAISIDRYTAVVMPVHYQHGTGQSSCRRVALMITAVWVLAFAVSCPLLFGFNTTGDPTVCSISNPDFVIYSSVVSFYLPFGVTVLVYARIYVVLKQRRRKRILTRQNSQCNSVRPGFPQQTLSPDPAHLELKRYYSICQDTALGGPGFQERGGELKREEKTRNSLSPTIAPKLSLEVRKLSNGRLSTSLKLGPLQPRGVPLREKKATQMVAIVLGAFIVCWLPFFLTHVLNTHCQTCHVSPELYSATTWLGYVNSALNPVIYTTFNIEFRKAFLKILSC
# [2] = molecular target: T5, 5-hydroxytryptamine receptor 2B (Homo sapiens, UniProt P41595); type: functional, cell-based
# T5 sequence (P41595 whole entry): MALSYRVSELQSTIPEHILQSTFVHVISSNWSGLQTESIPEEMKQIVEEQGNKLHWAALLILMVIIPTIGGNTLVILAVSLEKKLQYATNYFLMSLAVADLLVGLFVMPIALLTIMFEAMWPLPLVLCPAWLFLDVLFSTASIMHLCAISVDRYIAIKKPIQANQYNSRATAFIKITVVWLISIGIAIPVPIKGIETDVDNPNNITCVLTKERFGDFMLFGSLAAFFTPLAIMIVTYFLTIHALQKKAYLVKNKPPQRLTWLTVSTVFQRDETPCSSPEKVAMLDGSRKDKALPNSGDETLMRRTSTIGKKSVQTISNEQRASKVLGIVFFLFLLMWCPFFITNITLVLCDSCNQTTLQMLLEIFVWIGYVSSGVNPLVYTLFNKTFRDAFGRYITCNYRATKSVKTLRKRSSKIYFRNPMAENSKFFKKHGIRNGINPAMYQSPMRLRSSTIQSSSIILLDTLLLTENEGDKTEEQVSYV
# [3] = molecular target: T5, 5-hydroxytryptamine receptor 2B; type: functional, cell-based; remark: listed apart in the source
# [4] = molecular target: Muscarinic acetylcholine receptor M3 (Homo sapiens, UniProt P20309)
# Sequence of Muscarinic acetylcholine receptor M3 (P20309 whole entry): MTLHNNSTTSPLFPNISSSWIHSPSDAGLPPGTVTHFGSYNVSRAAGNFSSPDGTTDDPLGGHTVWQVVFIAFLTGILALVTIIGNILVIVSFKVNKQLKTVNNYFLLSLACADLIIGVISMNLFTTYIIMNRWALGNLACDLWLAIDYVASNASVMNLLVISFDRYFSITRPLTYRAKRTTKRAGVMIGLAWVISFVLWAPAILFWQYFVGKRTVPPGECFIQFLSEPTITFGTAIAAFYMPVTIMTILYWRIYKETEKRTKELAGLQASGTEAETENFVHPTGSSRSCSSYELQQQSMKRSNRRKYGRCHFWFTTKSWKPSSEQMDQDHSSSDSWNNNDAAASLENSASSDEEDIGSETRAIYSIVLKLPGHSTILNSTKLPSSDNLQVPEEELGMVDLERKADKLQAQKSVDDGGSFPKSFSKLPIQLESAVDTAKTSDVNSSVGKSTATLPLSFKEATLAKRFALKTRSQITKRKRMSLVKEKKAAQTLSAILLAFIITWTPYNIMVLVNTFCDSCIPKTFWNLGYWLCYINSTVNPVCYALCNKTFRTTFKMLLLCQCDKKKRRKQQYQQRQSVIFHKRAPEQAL
# Also: assay procedure not described here.
Compound,AC50 (Vasopressin V2 receptor) [µM],AC50 (Endothelin-1 receptor) [µM],AC50 (Estrogen receptor) [µM],AC50 (Glucocorticoid receptor) [µM],AC50 (Mu-type opioid receptor) [µM],AC50 [1] [µM],AC50 (D(3) dopamine receptor) [µM],AC50 [2] [µM],AC50 [3] [µM],AC50 [4] [µM]
O=C(O[C@H]1C[N+]2(CCCOc3ccccc3)CCC1CC2)C(O)(c1cccs1)c1cccs1 [ACLIDINIUM BROMIDE],> 30,> 30,> 30,> 30,> 30,> 10,> 10,–,–,–
Cc1nnc2n1-c1ccc(Cl)cc1C(c1ccccc1)=NC2 [ALPRAZOLAM],> 30,> 30,> 30,> 30,> 30,> 10,> 10,> 10,> 10,–
CCN(CC)CCCN(c1ccccc1)C1Cc2ccccc2C1 [APRINDINE],> 30,> 30,> 30,> 30,19,> 30,3.15,> 30,> 30,> 30
COc1ccc(C(Cl)=C(c2ccc(OC)cc2)c2ccc(OC)cc2)cc1 [CHLOROTRIANISENE],> 30,> 30,0.817,> 30,> 30,> 30,> 30,> 30,> 30,> 30
Oc1cc(O)c2c(c1)O[C@H](c1ccc(O)c(O)c1)[C@@H](O)C2 [CIANIDANOL],> 30,> 30,> 30,> 30,> 30,> 10,> 30,> 10,> 10,> 30
O=C1CN=C(c2ccccc2Cl)c2cc([N+](=O)[O-])ccc2N1 [CLONAZEPAM],> 30,> 30,> 30,> 30,> 30,> 10,> 10,> 10,> 10,–
CCN(CC)C(C)C(=O)c1ccccc1 (stereo unspecified) [DIETHYLPROPION],> 30,> 30,> 30,–,> 30,> 10,> 30,> 10,> 10,> 30
Cc1ccc(-c2ncc(Cl)cc2-c2ccc(S(C)(=O)=O)cc2)cn1 [ETORICOXIB],> 30,> 30,> 30,–,> 10,> 10,> 10,> 10,> 10,> 10
CCOC(=O)C1=C(C)NC(C)=C(C(=O)OC)C1c1cccc(Cl)c1Cl (stereo unspecified) [FELODIPINE],> 30,> 30,> 30,9.94,> 10,> 10,–,> 10,> 10,–
CN1C(=O)CN=C(c2ccccc2F)c2cc([N+](=O)[O-])ccc21 [FLUNITRAZEPAM],> 30,> 30,> 30,> 30,> 10,> 10,> 30,> 10,> 10,> 30
CN1C2CCCC1CC(NC(=O)c1nn(C)c3ccccc13)C2 (stereo unspecified) [GRANISETRON],> 30,> 30,> 30,–,> 10,> 10,> 10,> 10,> 10,–
CC1NCCOC1c1ccccc1 (stereo unspecified) [PHENMETRAZINE],> 30,> 30,> 30,–,> 30,> 10,> 30,> 10,23,> 30
CC(C)(N)Cc1ccccc1 [PHENTERMINE],> 30,> 30,> 30,> 30,> 30,> 10,> 30,> 10,> 10,> 30
CCC(=O)[C@@]1(C)[C@H](C)C[C@H]2[C@@H]3CCC4=CC(=O)C=C[C@]4(C)[C@H]3[C@@H](O)C[C@@]21C [RIMEXOLONE],> 10,–,> 30,0.01,> 30,> 10,> 30,> 10,> 10,> 30
TEPRENONE,> 30,–,> 30,> 30,> 30,> 10,> 30,> 10,> 10,> 30
